{"source": "patent US20120213789A1", "about": "“New Molecular Target for Treatment of Cancer” (priority 2001, published 2012)", "key": {"C4-2B Prostate Cell Line": {"system": "C4-2B Prostate Cell Line", "test": "Dual label UC28 C/AnnexinV flow cytometry after SPB treatment", "format": "cell-based, human", "details": "for Total AnnexV / Total UC28C: 72 hours, UC28-GAR-CY5/AnnexV-FITC", "procedure": "(§1) Cells were grown to 70-80% confluence at 37° C. and 5% CO2 in T-75 tissue culture plastic flasks. SPB stock solution was added to final concentrations of 0.5, 5.0, 10.0, and 25.0 mM in appropriate fresh media to the cell cultures. Cells were incubated at 37° C. and 5% CO2 for 72 hours. Attached cells were then harvested using a solution of 0.05% trypsin and 0.53 mM EDTA (Invitrogen Corp.). Attached cells were then pooled with any the detached cells and washed with PBS pH 7.2. Cell numbers and percent viability were determined using Trypan blue dye exclusion and a hemacytometer. At the time of their use in an experiment the viability was usually about 85% for untreated cells and a range of about 15-70% for treated cells, with the lower viabilities found at higher SPB concentrations (Thompson C, 1995; Cory et al., 1998; van Engeland et al., 1996).\nVO1 Apoptosis Detection Kit contains: (1) Fluorocein-isothiocyante (FITC) conjugated AnnexinV [AnnexinV01] 1 ml (2) Propidium Iodide [Annex-Pi] 2.0 ml (3) 4× Binding Buffer [Annex-B] 20.0 ml. Vendor is CalTag Laboratories, Inc., 1849 Bayshore Boulevard #200 Burlingame, Calif. 94010.\n(§2) UC28(C) is 2.14 mg/ml rabbit polyclonal aliquot directed against the inventors' UC28 patented biomarker developed by UCor R&D gene discovery program. The Antibody was produced against a twenty amino acid (AA) synthetic peptide from the predicted AA sequence (AA 21-37) UCor, Inc. 840 Research Parkway Oklahoma City, Okla. 73104.\n(§3) Goat Anti-Rabbit CY5 polyclonal Fluorchrome was used as the secondary conjugate for UC28 C rabbit polyclonal antibody and a background control for UC28 C polyclonal. Vendor is Jackson ImmunoResearch Laboratories, Inc. 872 West Baltimore Pike, P.O. Box 9 West Grove, Pa. 19390.\nMsIgG-FITC mouse conjugated-FITC was used for background control for AnnexinV01. Vendor is Becicman Coulter, Inc. Diagnostic Division, 11800 SW 147th Ave. M/S 42-003, P.O. Box 169015, Miami, Floridia 33116-9015.\nA Coulter Elite engineered with a triple laser system was used to analyze all samples. Coulter control beads were used to align lasers for the dual label testing of cell samples. Laser alignment was required for both the Argon (488 nm line) laser and HeNe (633 nm line) laser. These alignments were performed prior to all measurements with the Argon laser (488 nm line) using fluorophores for FITC, RPE, PI and the HeNe laser (633 nm line) for the Cy5 fluorophores being used for the experiments described below. The histographs, voltage settings, gates, color compensation, and pressures were established prior to all sample processing. […]\nUC28 and Annexin V were co-labeled in the three cell lines to assess the induction of UC28 by SPB and its correlation to the induction of apoptosis. […] It may be noted that in previously published experiments, AnnexinV and PI were run in combination with several prostate cancer cell lines, one of which was LNCaP, but not with C4-2B or MLC-SV40. It was determined that they produced similar dose-response kinetics when exposed to 0.5-25 mM of SPB for 72 hours (Ng et al., 1989). That is, as the dose of SPB increased, so did the membrane perturbation events measured by these two methods."}, "[1]": {"test": "Percent viability by Trypan blue dye exclusion after SPB treatment", "format": "cell-based", "details": "prostate cell lines, treated cells, SPB 0.5-25.0 mM, untreated cells about 85%", "procedure": "as §1"}, "[2]": {"system": "C4-2B Metastatic Prostate Cell Line", "test": "UROC28/Fas label flow cytometry after SPB treatment", "format": "cell-based, human", "details": "for Total Fas / Total UC2BC: section UROC28/Fas", "procedure": "as §1, §2, §3\nCD45 (FAS) IgG1 kappa—(R-phycoerythrin (RPE) is purified monoclonal antibody conjugated with R-phycoerythrin (RPE) that is specific for the FAS protein. Vendor is Dalco Corporation 6392 Via Real, Carpinteria, Calif. 93013 USA MsIgG1 IgG1 kappa R-phycoerythrin (RPE) conjugated goat anti-mouse immunoglobulins is used for (FAS) antibody negative control. Vendor is Dako Corporation 6392 Via Real, Carpinteria, Calif. 93013 USA.\nA Coulter Elite engineered with a triple laser system was used to analyze all samples. Coulter control beads were used to align lasers for the dual label testing of cell samples. Laser alignment was required for both the Argon (488 nm line) laser and HeNe (633 nm line) laser. These alignments were performed prior to all measurements with the Argon laser (488 nm line) using fluorophores for FITC, RPE, PI and the HeNe laser (633 nm line) for the Cy5 fluorophores being used for the experiments described below. The histographs, voltage settings, gates, color compensation, and pressures were established prior to all sample processing.\n(a) Tissue culture cells (MLC-SV40, LNCaP and C 4-2B) were aliquoted at concentration of 1×10^6 per teach 12×75 mm polystyrene tube. […]"}}, "data": [{"smiles": "O=C([O-])CCCc1ccccc1.[Na+]", "note": "[SPB, 4-Phenylbutyric Acid, Sodium Salt]", "values": [{"measurement": "Total AnnexV", "setting": "C4-2B Prostate Cell Line; 0.5 mM SPB", "value": 41.1, "unit": "%"}, {"measurement": "Total UC28C", "setting": "C4-2B Prostate Cell Line; 0.5 mM SPB", "value": 29.8, "unit": "%"}, {"measurement": "Total AnnexV", "setting": "C4-2B Prostate Cell Line; 5.0 mM SPB", "value": 94.0, "unit": "%"}, {"measurement": "Total UC28C", "setting": "C4-2B Prostate Cell Line; 5.0 mM SPB", "value": 81.8, "unit": "%"}, {"measurement": "Total AnnexV", "setting": "C4-2B Prostate Cell Line; 10 mM SPB", "value": 80.0, "unit": "%"}, {"measurement": "Total UC28C", "setting": "C4-2B Prostate Cell Line; 10 mM SPB", "value": 88.0, "unit": "%"}, {"measurement": "Total AnnexV", "setting": "C4-2B Prostate Cell Line; 25 mM SPB", "value": 82.3, "unit": "%"}, {"measurement": "Total UC28C", "setting": "C4-2B Prostate Cell Line; 25 mM SPB", "value": 96.5, "unit": "%"}, {"measurement": "UC28 up regulation", "setting": "C4-2B Prostate Cell Line; SPB, summary of Table 5", "value": "up regulated"}, {"measurement": "induction of apoptosis", "setting": "C4-2B Prostate Cell Line; SPB, summary of Table 5", "value": "induced"}, {"measurement": "viability at 72 h", "setting": "[1]", "value": "15 to 70", "unit": "%"}, {"measurement": "Total Fas", "setting": "[2]; 5.0 mM SPB", "value": 3.6, "unit": "%"}, {"measurement": "Total UC2BC", "setting": "[2]; 5.0 mM SPB", "value": 96.4, "unit": "%"}, {"measurement": "Total Fas", "setting": "[2]; 10 mM SPB", "value": 6.1, "unit": "%"}, {"measurement": "Total UC2BC", "setting": "[2]; 10 mM SPB", "value": 94.0, "unit": "%"}, {"measurement": "Fas protein expression", "setting": "[2]; SPB, summary of Table 7", "value": "markedly depressed"}]}]}
